One data set can be described thus: physchem. Particulars: 100 mm phosphate buffer.
The nature of data set [1]: Stability of esters of pyroglutamic acid in aqueous buffer (half-life of hydrolysis, intact ester by HPLC).
Experimental: (§1) (i) The chosen ester of pyroglutamic acid was dissolved in aqueous buffer of a selected pH value, to provide a 0.1% w/v solution of the ester;
(§2) (ii) Intact (unhydrolysed) ester was analysed by high performance liquid chromatography at regular time intervals.
(§3) (iii) The log of the amount of the ester remaining intact versus time was plotted to give a straight line response.
(§4) (iv) From this plot, the time required for half of the ester of pyroglutamic acid to be hydrolysed (half of the ester remaining intact), can be determined if necessary by extrapolation.
(§5) *Assay performed in 100 mM phosphate buffer at 30° C.
Data set [2] can be described thus: Delivery of pyroglutamic acid to the stratum corneum after topical application of tritiated esters to the arms of volunteers (radio-tracer technique). The conditions noted are these: [3H] pyroglutamic acid applied topically instead of ester. The class given is in vivo, human. The text has this: Accordingly, [^3 H] esters of pyroglutamic acid were each dissolved at 1% w/v in anhydrous ethanol or in an oil-in-water emulsion base. […] The [^3 H] pyroglutamic acid was separated from unchanged ester by chromotography on AG1X8 resin and the amount delivered to the skin expressed as nmoles per mg of stratum corneum protein.

Molecules are shown by their SMILES.

Experimental for physchem: as §1, §2, §3, §4, §5

In general, half-life refers to the time needed for the level to fall by half in the phase considered. The low end stands for fast loss, the high end for slow loss. For `CCCCCCCCOC(=O)[C@@H]1CCC(=O)N1` [Pyroglutamic acid n-octyl ester, pyroglutamic acid n-octyl ester], the half-life in “physchem” (pH 4) was 750 days; in “physchem” (pH 7) it was 4 days.

As to `CCCCOC(=O)[C@@H]1CCC(=O)N1` [Pyroglutamic acid n-butyl ester, pyroglutamic acid n-butyl ester], the half-life in the data set “physchem” (pH 4) is 625 days; in “physchem” (pH 7), 3.33 days.

With `CCOC(=O)[C@@H]1CCC(=O)N1` [Pyroglutamic acid ethyl ester, pyroglutamic acid ethyl ester], the half-life is 11000 h in data set [1] (100 mm phosphate buffer, pH 4); 58 h in data set [1] (100 mm phosphate buffer, pH 7); 288 h in data set [1] (aqueous buffer, pH 6.5); 168 h in data set [1] (aqueous buffer, pH 6.8); 57.6 h in data set [1] (aqueous buffer, pH 7); 48 h in data set [1] (aqueous buffer, pH 7.4). The half-life in data set [1] (aqueous buffer, pH 7.8) was 24 h.

Regarding `CCCCCCOC(=O)[C@@H]1CCC(=O)N1` [Pyroglutamic acid n-hexyl ester, pyroglutamic acid n-hexyl ester], the half-life was 750 days in “physchem” (pH 4) and 4 days in the data set “physchem” (pH 7).

Turning to `O=C1CCC(C(=O)O)N1` (stereo not shown) [[^3 H] pyroglutamic acid, 2-pyrrolidone-5-carboxylic acid], the “amount of tritiated free acid recovered from the stratum corneum” value in data set [2] is “negligible amount”.

Turning to `CCOC(=O)C(C)OC(=O)C1CCC(=O)N1` (stereo not shown) [Ethyl-2-[pyroglutamoyloxy]-n-propionate, ethyl-2-[pyroglutamoyloxy]-n-propionate], the figures for the half-life in the data set “physchem” (pH 4) and in “physchem” (pH 7) were 70.8 days and 0.375 days, respectively.
